Source: PubChem BioAssay AID1259411 (Chemical Carcinogenesis Research Information System (CCRIS), 2018)
Calls of active or inactive are those of the source. The rule behind the calls is not given here.

Test system: rodent carcinogenicity bioassays, tumor incidence
Experiment: CCRIS carcinogenicity studies
Procedure, shortened: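 Archive of carcinogenicity, mutagenicity, tumor promotion and tumor inhibition results drawn from journals, NCI reports and other sources, expert-reviewed; covers 1985-2011 and is no longer updated.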

In the case of OCCNCCO, the carcinogen call (Species: MOUSE, Strain/Sex: B6C3F1/FEMALE, Route: DERMAL, Dose: 0, 40, 80, 160 MG/KG BW IN ETHANOL 5 D/WK FOR 103 WK (STUDY DURATION: 103 WK), Dose: 0, 40, 80, 160 MG/KG BW IN ETHANOL 5 D/WK FOR 103 WK (STUDY DURATION: 103 WK), Tumor Site: Type of Lesion: LIVER: HEPATOCELLULAR ADENOMA, HEPATOCELLULAR CARCINOMA, OR HEPATOBLASTOMA) is reported as “active; positive”, the carcinogen call (Species: MOUSE, Strain/Sex: B6C3F1/MALE, Route: DERMAL, Dose: 0, 40, 80, 160 MG/KG BW IN ETHANOL 5 D/WK FOR 103 WK (STUDY DURATION: 103 WK), Dose: 0, 40, 80, 160 MG/KG BW IN ETHANOL 5 D/WK FOR 103 WK (STUDY DURATION: 103 WK), Tumor Site: Type of Lesion: LIVER: HEPATOCELLULAR ADENOMA, HEPATOCELLULAR CARCINOMA, OR HEPATOBLASTOMA) is reported as “active; positive” and the carcinogen call (Species: RAT, Strain/Sex: F344/N/FEMALE, Route: DERMAL, Dose: 0, 8, 16, 32 MG/KG BW IN ETHANOL 5 D/WK FOR 103 WK (STUDY DURATION: 103 WK), Dose: 0, 8, 16, 32 MG/KG BW IN ETHANOL 5 D/WK FOR 103 WK (STUDY DURATION: 103 WK)) is reported as “inactive; negative”. The carcinogen call (Species: RAT, Strain/Sex: F344/N/MALE, Route: DERMAL, Dose: 0, 16, 32, 64 MG/KG BW IN ETHANOL 5 D/WK FOR 103 WK (STUDY DURATION: 103 WK), Dose: 0, 16, 32, 64 MG/KG BW IN ETHANOL 5 D/WK FOR 103 WK (STUDY DURATION: 103 WK)) was “inactive; negative”.
In the case of [Be], the carcinogen call (Species: RAT, Strain/Sex: WISTAR/FEMALE, Route: INTRATRACHEAL, Dose: 0, 0.5, 2.5 MG, SINGLE DOSE IN SALINE SUSPENSION, Tumor Site: Type of Lesion: LUNG) is reported as “active; positive” and the carcinogen call (Species: RAT, Strain/Sex: WISTAR/FEMALE, Route: INTRATRACHEAL, Dose: 0.5, 2.5 MG/RAT IN SALINE SUSPENDED ONCE, Tumor Site: Type of Lesion: LUNG) is reported as “active; positive”.
For C=C(C)[C@H]1CC=C(C)CC1, the carcinogen call (Species: MOUSE, Strain/Sex: B6C3F1/FEMALE, Route: GAVAGE, Dose: 0, 500, 1000 MG/KG IN CORN OIL 5 D/WK FOR 103 WK (STUDY DURATION: 105 WK), Dose: 0, 500, 1000 MG/KG IN CORN OIL 5 D/WK FOR 103 WK (STUDY DURATION: 105 WK)) was “inactive; negative”, the carcinogen call (Species: MOUSE, Strain/Sex: B6C3F1/MALE, Route: GAVAGE, Dose: 0, 250, 500 MG/KG IN CORN OIL 5 D/WK FOR 103 WK (STUDY DURATION: 105 WK), Dose: 0, 250, 500 MG/KG IN CORN OIL 5 D/WK FOR 103 WK (STUDY DURATION: 105 WK)) was “inactive; negative” and the carcinogen call (Species: RAT, Strain/Sex: F344/FEMALE, Route: GAVAGE, Dose: 0, 300, 600 MG/KG IN CORN OIL 5 D/WK FOR 103 WK (STUDY DURATION: 106 WK), Dose: 0, 300, 600 MG/KG IN CORN OIL 5 D/WK FOR 103 WK (STUDY DURATION: 106 WK)) was “inactive; negative”. The carcinogen call (Species: RAT, Strain/Sex: F344/MALE, Route: GAVAGE, Dose: 0, 75, 150 MG/KG IN CORN OIL 5 D/WK FOR 103 WK (STUDY DURATION: 106 WK), Dose: 0, 75, 150 MG/KG IN CORN OIL 5 D/WK FOR 103 WK (STUDY DURATION: 106 WK), Tumor Site: Type of Lesion: KIDNEY: TUBULAR CELL ADENOMA, TUBULAR CELL ADENOMA OR ADENOCARCINOMA) was “active; positive”.
For O=C(O)CCCC/C=C(\c1ccccc1)c1cccnc1, the carcinogen call (Species: MOUSE, Strain/Sex: CD-1/FEMALE, Route: ORAL, Dose: 0, 10, 30, 100, 300 MG/KG/D IN DIET FOR 2 YR (STUDY DURATION: 2 YR), Dose: 0, 10, 30, 100, 300 MG/KG/D IN DIET FOR 2 YR (STUDY DURATION: 2 YR)) was “inactive; negative”, the carcinogen call (Species: MOUSE, Strain/Sex: CD-1/MALE, Route: ORAL, Dose: 0, 10, 30, 100, 300 MG/KG/D IN DIET FOR 2 YR (STUDY DURATION: 2 YR), Dose: 0, 10, 30, 100, 300 MG/KG/D IN DIET FOR 2 YR (STUDY DURATION: 2 YR)) was “inactive; negative” and the carcinogen call (Species: RAT, Strain/Sex: STRAIN-CD/FEMALE, Route: ORAL, Dose: 0, 10, 30, 100 MG/KG/D IN DIET FOR 2 YR (STUDY DURATION: 2 YR), Dose: 0, 10, 30, 100 MG/KG/D IN DIET FOR 2 YR (STUDY DURATION: 2 YR)) was “inactive; negative”. For the same compound, the carcinogen call (Species: RAT, Strain/Sex: STRAIN-CD/MALE, Route: ORAL, Dose: 0, 10, 30, 100 MG/KG/D IN DIET FOR 2 YR (STUDY DURATION: 2 YR), Dose: 0, 10, 30, 100 MG/KG/D IN DIET FOR 2 YR (STUDY DURATION: 2 YR)) was “inactive; negative”.
In the case of O=[N+]([O-])c1cc2ccc3cc4ccccc4c4ccc(c1)c2c34, the carcinogen call (Species: MOUSE, Strain/Sex: B6C3F1/MALE, Route: INTRAPERITONEAL, Dose: 0, 400 NMOL IN 35 µL DMSO ON DAYS 1 (1/7 TOTAL DOSE), 8 (2/7 TOTAL DOSE), AND 15 (4/7 TOTAL DOSE) AFTER BIRTH (STUDY DUR, Tumor Site: Type of Lesion: LIVER: ADENOMA OR CARCINOMA) is reported as “active; positive”.
With CCCCCN(N=O)C(N)=O the carcinogen call (Species: RAT, Strain/Sex: F344/FEMALE, Route: GAVAGE, Dose: 0, 16 MG/ML (TOTAL DOSE 0; 2 MMOL) IN 2 ML ETHYL ACETATE AND CORN OIL (1:2) 2/WK FOR 50 WK (STUDY DURATION: LIFETIME), Dose: 0, 16 MG/ML (TOTAL DOSE 0; 2 MMOL) IN 2 ML ETHYL ACETATE AND CORN OIL (1:2) 2/WK FOR 50 WK (STUDY DURATION: LIFETIME), Tumor Site: Type of Lesion: FORESTOMACH: SQUAMOUS CELL CARCINOMA, LUNG: TUMOR, UTERUS: TUMOR, Tumor Site: Type of Lesion: FORESTOMACH: SQUAMOUS CELL CARCINOMA, LUNG: TUMOR, UTERUS: TUMOR) was “active; positive”, the carcinogen call (Species: RAT, Strain/Sex: F344/FEMALE, Route: GAVAGE, Dose: 0, 16 MG/ML IN 0.2 ML ETHYL ACETATE AND CORN OIL 2/WK FOR 50 WK (STUDY DURATION: LIFESPAN), Tumor Site: Type of Lesion: FORESTOMACH: TUMOR, LUNG: TUMOR, UTERUS: TUMOR, Tumor Site: Type of Lesion: FORESTOMACH: TUMOR, LUNG: TUMOR, UTERUS: TUMOR) was “active; positive” and the carcinogen call (Species: RAT, Strain/Sex: F344/MALE, Route: GAVAGE, Dose: 0, 16 MG/ML (TOTAL DOSE 0; 2 MMOL) IN 2 ML ETHYL ACETATE AND CORN OIL (1:2) 2/WK FOR 50 WK (STUDY DURATION: LIFETIME), Dose: 0, 16 MG/ML (TOTAL DOSE 0; 2 MMOL) IN 2 ML ETHYL ACETATE AND CORN OIL (1:2) 2/WK FOR 50 WK (STUDY DURATION: LIFETIME), Tumor Site: Type of Lesion: FORESTOMACH: SQUAMOUS CELL CARCINOMA, LUNG: TUMOR, BODY CAVITY: MESOTHELIOMA, Tumor Site: Type of Lesion: FORESTOMACH: SQUAMOUS CELL CARCINOMA, LUNG: TUMOR, BODY CAVITY: MESOTHELIOMA) was “active; positive”. For the same compound, the carcinogen call (Species: RAT, Strain/Sex: F344/MALE, Route: GAVAGE, Dose: 0, 16 MG/ML IN 0.2 ML ETHYL ACETATE AND CORN OIL 2/WK FOR 50 WK (STUDY DURATION: LIFESPAN), Tumor Site: Type of Lesion: FORESTOMACH: TUMOR, LUNG: TUMOR: PERITONEUM: MESOTHELIOMA, SKIN: TUMOR, Tumor Site: Type of Lesion: FORESTOMACH: TUMOR, LUNG: TUMOR: PERITONEUM: MESOTHELIOMA, SKIN: TUMOR) was “active; positive”.
Cn1cc(-c2ccccc2)c(=O)c(-c2cccc(C(F)(F)F)c2)c1 was tested, and the carcinogen call (Species: Mouse, Strain/Sex: ICR/Female (60?/Group), Route: Oral, Dose: 0, 33, 100, 330 ppm (0; 4.0; 12.3; 34.5 mg/kg/day) of 97.2-97.8% fluridone in diet for 2 yr, study duration 2 yr, Dose: 0, 33, 100, 330 ppm (0; 4.0; 12.3; 34.5 mg/kg/day) of 97.2-97.8% fluridone in diet for 2 yr, study duration 2 yr) was “inactive; negative. (possible increased incidence of skin fibrosarcomas in high dose femal”, the carcinogen call (Species: Mouse, Strain/Sex: ICR/Male (60?/Group), Route: Oral, Dose: 0, 33, 100, 330 ppm (0; 3.5; 10.9; 30.7 mg/kg/day) of 97.2-97.8% fluridone in diet for 2 yr, study duration 2 yr, Dose: 0, 33, 100, 330 ppm (0; 3.5; 10.9; 30.7 mg/kg/day) of 97.2-97.8% fluridone in diet for 2 yr, study duration 2 yr) was “inactive; negative” and the carcinogen call (Species: Rat, Strain/Sex: Fischer 344/Female (60/Group), Route: Oral, Dose: 0, 200, 650, 2000 ppm of 97.2-97.8% fluridone in diet for 2 yr, study duration 2 yr, Dose: 0, 200, 650, 2000 ppm of 97.2-97.8% fluridone in diet for 2 yr, study duration 2 yr) was “inactive; negative”. For the same compound, the carcinogen call (Species: Rat, Strain/Sex: Fischer 344/Male (60/Group), Route: Oral, Dose: 0, 200, 650, 2000 ppm of 97.2-97.8% fluridone in diet for 2 yr, study duration 2 yr, Dose: 0, 200, 650, 2000 ppm of 97.2-97.8% fluridone in diet for 2 yr, study duration 2 yr) was “inactive; negative”.
For CC(=O)C=O, the carcinogen call (Species: MOUSE, Strain/Sex: CD-1/FEMALE, Route: DERMAL, Dose: 0, 50 UMOL/0.1 ML DMSO 2/WK FOR 5 WK FOLLOWED 1 WK LATER BY 0.1 ML ACETONE 2/WK FOR 47 WK (STUDY DURATION: 52 WK)) was “inactive; negative”.
